The target in assay [1] is porcine pancreatic phospholipase A2 (PLA2) (Sus scrofa, UniProt P00592). The assay is described as follows: Inhibition of liberation of tritiated oleic acid from Escherichia coli membranes by porcine pancreatic phospholipase A2. The assay is classed as biochemical. As to conditions: Test on Escherichia coli membranes. The source says: The compounds of the present invention have an inhibiting activity on the liberation of tritiated oleic acid previously incorporated into Escherichia coli membranes under the effect of porcine pancreatic phospholipase A2 (PLA2) according to the technique described by Frason, Patriarca and Elsbach (J. Lipid. Res., 15, (1974), 380-388).
Chain of porcine pancreatic phospholipase A2 (PLA2) (P00592 23-146): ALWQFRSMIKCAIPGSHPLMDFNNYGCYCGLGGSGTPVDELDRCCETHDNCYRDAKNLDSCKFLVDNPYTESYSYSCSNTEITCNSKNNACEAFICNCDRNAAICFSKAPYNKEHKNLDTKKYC

The test system of assay [2] is mouse calvaria. The assay is described as follows: Formation of osteoid tissue: incorporation of tritiated proline into bone tissue of mouse calvaria. The assay is classed as cell-based. As to conditions: read-out: Stimulation of formation. The text has this: An effect promoting the formation of osteoid tissue (incorporation of tritiated proline from the medium into the bone tissue of mouse calvaria) has also been observed with some compounds: […]

In assay [3] the test system is mouse calvaria. The assay is described as follows: Anti-bone resorption-1: inhibition of hyper-resorption in mouse calvaria (in vitro). To be noted: for inhibition at 10 µM / inhibition at 50 µM: hyper-resorption induced by 5×10^-8 M retinoic acid; for inhibition at 7.5 µM: 7,5 μM. The assay is classed as cell-based.
For the next assay, the system named is endogenous membrane PLA2. The assay is described as follows: Inhibition of liberation of arachidonic acid from isolated rat polymorphonuclears stimulated by ionophore. The assay is classed as cell-based. To be noted: Test on rat PMNs; ionophore stimulation. As for the experimental part:
In a cell model involving endogenous membrane PLA2, the compounds of the invention also exerted an inhibiting effect on the liberation of arachidonic acid by their action on isolated rat polymorphonuclears (PLN), the membrane phospholipids of which had been labelled with tritiated arachidonic acid. The degree of activity of the compounds of the invention is assessed by measuring the radioactivity liberated after stimulation by ionophore […] according to the technique described by Sakson, Raz, Denny, Wyche and Needleman (Prostaglandins, 14, (1977), 853, sqq.).

Assay [4] relates to mice in which a state of hyper-resorption had been induced by a calcium-deficient diet. The assay is described as follows: Anti-bone resorption-2: in vivo urinary [3H] tetracycline excretion in mice with hyper-resorption induced by calcium-deficient diet. To be noted: calcium-deficient diet (0.4%). The protocol: In vivo study according to the measurement method described by Konig, Muhlbauer and Fleisch ("Tumor necrosis factor and interleukine-1 stimulate bone resorption in vivo as measured by urinary [^3 H] tetracycline excretion from prelabeled mice", J. Bone Min. Res., 3, (1988), 621-627). A study was carried out on mice in which a state of hyper-resorption had been induced by a calcium-deficient diet (0.4%).

Read-outs that look alike come from different tables or passages of the source.

In the case of `CC(/C=C/C=C(\C)C1=Cc2cc(-c3ccccc3)ccc2OC1)=C\C(=O)O` [Example 26, (2E,4E,6E)-3-Methyl-7-(6-phenyl-2H-chromen-3-yl)octa-2,4,6-trienoic acid], the 50% inhibitory concentration (IC50) in assay [1] turned out to be 5 µM. Moreover, in the assay on mouse calvaria [2], the activation at 10 µM is 7%. In the assay with mouse calvaria [3], this molecule had an inhibition at 10 µM of 11% and an inhibition at 50 µM of 29%.

Turning to `CCOC(=O)\C=C(C)/C=C/C=C(\C)C1=Cc2cc(-c3ccccc3)ccc2OC1` [Example 27], the IC50 in assay [1] was determined as 7.5 µM. In the assay with mouse calvaria [3], the inhibition at 10 µM came to 11%.

With `CC(C)(C)c1cc2c(c(C(C)(C)C)c1)OCC(/C=C/C=C/C=C/C(=O)O)=C2` [Example 13, (2E,4E,6E)-7-(6,8-Ditert.-butyl-2H-chromen-3-yl)hepta-2,4,6-trienoic acid], the concentration for half-maximal inhibition (IC50) in assay [1] was 3 µM; in the assay with endogenous membrane PLA2, 5 µM.

For `CCOC(=O)/C=C(C)/C=C/C=C(C)/C=C/c1c(C)cc(OC)c(C)c1C` [Etretinate, reference compound], the “Effect on hyper-resorption / urinary excretion of tritiated tetracycline (in words)” value in assay [4] is on record as “tends to increase the urinary excretion of tritiated tetracycline”. For the same molecule, the “% variation in urinary [3H] tetracycline excretion” value in assay [4] (oral dose 50 mg/kg) was “+11%”; in assay [4] (oral dose 100 mg/kg), “+3%”. Moreover, the inhibition at 50 µM in the assay on mouse calvaria [3] came to 11%.

Consider `Cc1cc(Cl)cc2c1OCC(/C=C/C=C/C=C/C(=O)O)=C2` [Example 15, (2E,4E,6E)-7-(6-Chloro-8-methyl-2H-chromen-3-yl)hepta-2,4,6-trienoic acid], for which the values for the half-inhibitory concentration (IC50) (in assay [1]; in the assay with endogenous membrane PLA2) were 10 µM and 50 µM, respectively.

On to `O=C(O)/C=C/C=C/C=C/C1=Cc2cc(Cl)cc(Cl)c2OC1` [Example 20, (2E,4E,6E)-7-(6,8-Dichloro-2H-chromen-3-yl) hepta-2,4,6-trienoic acid], for which the 50% inhibitory concentration (IC50) is 8 µM in assay [1] and 30 µM with endogenous membrane PLA2.

As to `CCOC(=O)/C=C(C)/C=C/C=C(\C)C1=Cc2cc(C)ccc2OC1` [Example 32, Ethyl (2E,4E,6E)-7-(6-methyl-2H-chromen-3-yl)-3-methylocta-2,4,6-trienoate], the concentration for half-maximal inhibition (IC50) in assay [1] turned out to be 7.5 µM. Further, in the assay with mouse calvaria [3], the inhibition at 10 µM was determined as 14% and the inhibition at 50 µM was 12%.

For `CCOC(=O)/C=C(C)/C=C/C=C(\C)C1=Cc2cc(C(C)(C)C)ccc2OC1` [Example 33, Ethyl (2E,4E,6E)-7-(6-tert.-butyl-2H-chromen-3-yl)-3-methylocta-2,4,6-trienoate], the inhibition at 10 µM in the assay on mouse calvaria [3] turned out to be 3%.

With `CCOC(=O)/C=C(C)/C=C/C=C(\C)C1=Cc2cc(C(C)(C)C)cc(C)c2OC1` [Example 36, Ethyl (2E,4E,6E)-7-(6-tert.-butyl-8-methyl-2H-chromen-3-yl)-3-methylocta-2,4,6-trienoate], in assay [1], the 50% inhibitory concentration (IC50) stood at 5 µM.

On to `Cc1cc2c(c(C(C)(C)C)c1)OCC(/C=C/C=C/C=C/C(=O)O)=C2` [Example 11, (2E,4E,6E)-7-(6-Methyl-8-tert.-butyl-2H-chromen-3-yl)hepta-2,4,6-trienoic acid], for which the figures for the IC50 (in assay [1]; with endogenous membrane PLA2) were 6 µM and 5 µM, respectively.

`Cc1cc(Cl)cc2c1OC(C)(C)C(/C=C/C=C/C=C/C(=O)O)=C2` [Example 19, (2E,4E,6E)-7-(2,2,8-Trimethyl-6-chloro-2H-chromen-3-yl)hepta-2,4,6-trienoic acid]: the values for the IC50 (in assay [1]; in the assay on endogenous membrane PLA2) were 30 µM and 50 µM, respectively.

On to `CCOC(=O)/C=C(C)/C=C/C=C(\C)C1=Cc2cc(C)cc(C)c2OC1` [Example 35, Ethyl (2E,4E,6E)-7-(6,8-dimethyl-2H-chromen-3-yl)-3-methylocta-2,4,6-trienoate], for which, in assay [1], the IC50 was 5 µM. Moreover, in the assay on mouse calvaria [2], the activation at 10 µM was 11%. In the assay with mouse calvaria [3], this molecule had an inhibition at 10 µM of 15% and an inhibition at 50 µM of 32%. Also, the inhibition at 7.5 µM in the assay with mouse calvaria [3] (parathormone (PTH) 500 ng/ml, read-out: Hyper-resorption with PTH) stood at 12%. In addition, in the assay with mouse calvaria [3] (retinoic acid, read-out: Hyper-resorption with retinoic acid), the inhibition at 7.5 µM is 9%.

Take `Cc1cc(C)c2c(c1)C=C(/C=C/C=C/C=C\C(=O)O)CO2` [Example 2, (2Z,4E,6E)-7-(6,8-Dimethyl-2H-chromen-3-yl) hepta-2,4,6-trienoicacid]: the “% variation in urinary [3H] tetracycline excretion” value in assay [4] (oral dose 50 mg/kg) is given as -10%; in assay [4] (oral dose 100 mg/kg) it was -10%; in assay [4] (oral dose 200 mg/kg) it was -12%.

Take `Cc1cc(C)c2c(c1)C=C(/C=C/C=C/C=C/C(=O)O)C(C)(C)O2` [Example 18, (2E,4E,6E)-7-(2,2,6,8-Tetramethyl-2H-chromen-3-yl)hepta-2,4,6-trienoic acid]: the IC50 (in assay [1]; in the assay with endogenous membrane PLA2) was 30 µM in each case.

Take `Cc1cc(Cl)c2c(c1)C=C(/C=C/C=C/C=C/C(=O)O)CO2` [Example 14, (2E,4E,6E)-7-(6-Methyl-8-chloro-2H-chromen-3-yl)hepta-2,4,6-trienoic acid]: the IC50 was 20 µM in assay [1] and 50 µM in the assay with endogenous membrane PLA2.

Turning to `CC(C)c1ccc2c(c1)C=C(/C=C/C=C/C=C/C(=O)O)CO2` [Example 5, (2E,4E,6E)-7-(6-Isopropyl-2H-chromen-3-yl) hepta-2,4,6-trienoic acid], the IC50 was 7.5 µM in assay [1] and 30 µM in the assay with endogenous membrane PLA2.

Consider `CC(/C=C/C=C(\C)C1=Cc2cc(C(C)(C)C)ccc2OC1)=C\C(=O)O` [Example 41, (2E,4E,6E)-7-(6-Tert.-butyl-2H-chromen-3-yl)-3-methylocta-2,4,6-trienoic acid], for which, in assay [1], the IC50 was 4 µM.

In the case of `CC(C)(C)c1ccc2c(c1)C=C(/C=C/C=C/C=C/C(=O)O)CO2` [Example 6, (2E,4E,6E)-7-(6-Tert.-butyl-2H-chromen-3-yl) hepta-2,4,6-trienoic acid], the figures for the IC50 (in assay [1]; in the assay with endogenous membrane PLA2) were 9 µM and 10 µM, respectively.

As for `CCOC(=O)/C=C(C)/C=C/C=C(\C)C1=Cc2cc(-c3ccccc3)ccc2OC1` [Example 25, Ethyl (2E,4E,6E)-3-methyl-7-(6-phenyl-2-H-chromen-3-yl)octa-2,4,6-trienoate], the half-maximal inhibitory concentration (IC50) in assay [1] came to 5 µM. Further, the inhibition at 50 µM in the assay with mouse calvaria [3] is 15%.

Broadly, the IC50 is the midpoint of a concentration-inhibition curve.
